Patent publication US20070117849A1, “Alfavbeta3 and alfavbet6 integrin antagonists as antifibrotic agents” (priority 2003, published 2007)

Legend:
CFSC-2G cells = assay: Scratch assay (cell migration), CFSC-2G cells; type: cell-based, rat; conditions: PDGF-BB 10 ng/ml, 17-20 h
Method: In addition the HSC cell lines CFSC-2G (moderately activated, kind gift of Dr. M. Rojkind, Washington DC, USA) were used.
(§1) Scratch assay: Cell migration was estimated by measuring the reduction of scratch area. Cells were seeded on a 24-well plate at a density of 60,000 cells/well. After reaching confluency cells were starved in serum-free medium for 24 h before making a scratch through the cell monolayer using a sterile pipet tip. After wounding cells were pre-treated by the αvβ3-integrin inhibitor at increasing concentrations (10^−10M-10^−6M) for 30 min and then treated by PDGF-BB at a concentration of 10 ng/ml in the absence of serum. The reduction of scratch area was measured at three different points per well using a special ocular with net-micrometer after […].
(§2) All experiments were performed in cell culture with the myofibroblasts-like cell line CFSC-2G (HSC cell line derived from cirrhotic rat liver) and primary rat HSC/MF. To investigate the effect of the αvβ3 integrin inhibitor on cell migration cells were seeded on 24 well plates and after reaching confluence starved in the absence of FCS for 24 h. Scratches were done and the cells treated with PDFG-BB at 10 ng/ml in the presence or absence of the αvβ3 inhibitor at 10^−6-−10^9 M. The rate of migration was measured after 17-20 h as a reduction of initial scratch width. […]

primary rat HSC/MF = assay: Scratch assay (cell migration), primary rat HSC/MF; type: cell-based
Method: Briefly, the liver was perfused in situ through the portal vein using a 16-18 G cannula with calcium-free HBSS (Gybco, UK) for S min followed by 0,1% Pronase E (Sigma) and subsequently 0.025% type IV collagenase (Sigma) in Dulbecco's modified Eagle's medium for 10-15 min each. The digested liver was excised, gently minced and incubated further with 0.04% pronase, 0,025% collagenase, 0,002% DNAse (Sigma) in Dulbecco's modified Eagle's medium, supplemented with 25 mM HEPES at 37° C. for 10-30 min with gentle agitation. After filtration through 100 μm nylon gauze, parenchymal cells were removed by low speed centrifugation. The HSC fraction was collected from the gradient interface after enrichment by a two-step centrifugation through a 11 and 13% gradient of Nycodenz (Sigma) at 1500 g for 15 min without braking, and plated at a density 0.5×10^6/cm^2 in DMEM supplemented with 10% FCS, penicillin and streptomycin. Medium was changed after 24 h, and further every 48 hours. Viability of the isolated cells was assessed by Trypan Blue exclusion and was routinely greater then 95-98%. Purity of HSC isolates was confirmed by their typical morphological appearance: lipid-droplets in the cytoplasm showing greenish autofluorescence at 390 nm excitation and star-like shape. Contamination with Kupffer cells was assessed by the ability to engulf 3 μm latex beads and was below 3-5% after isolation, and almost undetectable after the 1st passage. For experiments cells were used between the 1st and 3rd passage, if not stated otherwise.
as §1, §2

HSC/MF = assay: BrdU incorporation (cell proliferation, de novo DNA synthesis); type: cell-based, rat
Method: Briefly, the liver was perfused in situ through the portal vein using a 16-18 G cannula with calcium-free HBSS (Gybco, UK) for S min followed by 0,1% Pronase E (Sigma) and subsequently 0.025% type IV collagenase (Sigma) in Dulbecco's modified Eagle's medium for 10-15 min each. The digested liver was excised, gently minced and incubated further with 0.04% pronase, 0,025% collagenase, 0,002% DNAse (Sigma) in Dulbecco's modified Eagle's medium, supplemented with 25 mM HEPES at 37° C. for 10-30 min with gentle agitation. After filtration through 100 μm nylon gauze, parenchymal cells were removed by low speed centrifugation. […] Viability of the isolated cells was assessed by Trypan Blue exclusion and was routinely greater then 95-98%. […] Contamination with Kupffer cells was assessed by the ability to engulf 3 μm latex beads and was below 3-5% after isolation, and almost undetectable after the 1st passage. […]
BrdU incorporation: To assess cell proliferation de novo DNA synthesis was determined as BrdU incorporation. […] During last […] of incubation cells were pulse-labeled with BrdU and its incorporation measured using an ELISA kit (Roche) and a micro-plate reader. […]

CTGF = assay: Real-Time PCR of CTGF expression in CFSC-2G cells; type: cell-based, rat; conditions: PDGF-BB 10 ng/ml 24 h, inhibitor 10^−6-10^−8 M, dose-dependent, maximum of inhibition at 10^−6 M
Method: (§3) Real-Time PCR Total RNA was isolated from the cell lysates using the RNApure commercial kit (PeqLab, Erlangen, Germany) according to the manufacturer's recommendations. Template cDNA was obtained by reverse transcription of […] of total RNA.
(§4) Relative transcript levels were quantified by real time RT-PCR using the LightCycler system (Roche), using 1,5 μl of template cDNA dilution in a total reaction volume of 15 μl that included Taq DNA-Polymerase, dNTP-mix, reaction buffer, and 3.0 mM MgCl2 provided by the “LightCycler FastStart DNA Master Hybridization Probes Kit” (Roche Molecular Biochemicals, Mannheim, Germany) according to the manufactor's instructions. For every measured transcript a 1:2 to 1:32 dilution series of one sample was used as standard. Data were analyzed with the LightCycler software using the “proportional second derivative maximum” option. The housekeeping genes beta-2 microglobulin or GAPDH were amplified in a parallel reaction for normalization of the results. […]
(§5) To investigate whether the […] integrin inhibitor had any effect on ECM expression in HSC/MF mRNA, expression of a spectrum of the major pro- and anti-fibrogenic molecules like procollagen α1(I) I, TGFβ1, TGFβ2, MMP-3, MMP-13, MMP-2, connective tissue growth factor (CTGF) and TIMP-1 was measured by Real-Time PCR. […]

[1] = test system: procollagen α1(I), TGFβ1, TGFβ2, MMP-3, MMP-13, MMP-2, TIMP-1; assay: Real-Time PCR of other pro- and anti-fibrogenic molecules in HSC/MF; type: cell-based, rat; conditions: PDGF-BB 10 ng/ml 24 h; data not shown
Method: as §3, §4, §5

[2] = test system: secondary biliary liver fibrosis; assay: Rat fibrosis model of bile duct occlusion (secondary biliary liver fibrosis); type: in vivo; conditions: after 5-6 weeks of bile duct occlusion, pilot experiments
Method: Animal experimentation: Male adult Wistar rats, average weight 206±19 g, underwent the following microsurgical procedure under an operating microscope (OPMI 6-S, Zeiss, Germany) (45-47): 1. midline abdominal incision following anesthesia with 100 mg/kg ketamine-hydrochloride (Ketanest®, Parke-Davis, Germany) and 10 mg/kg 5,6-dihydro-2-(2,6-xylidino)-4H-1,3-thiazine-hydrochloride (Rompun®, Bayer, Germany); 2. dissection of the common bile duct, insertion of a teflon catheter (Abbocath®-T 26 G, Venisystems, USA) and placement of a distal complete and a proximal incomplete ligature with 5-0 silk (Perma-hand®, Ethicon, Germany); 3. retrograde injection of sodium-amidotrizoate (Ethibloc®, Ethicon Germany) at a dose of […] body weight; 4. removal of the catheter, closure of the proximal ligature, scission of the bile duct between the ligatures and wound closure. After bile duct occlusion (BDO), animals received normal chow (Altromin®, Lage, Germany) and were allowed free access to water. […]
as §5

Row | Compound | PDGF-BB induced cell migration into the scratch area (CFSC-2G cells; inhibitor 10^-9-10^-6 M, dose-dependent) | PDGF-BB induced cell migration at 10^−6 M (CFSC-2G cells; inhibitor 10^−6 M) | inhibition of migration at reduced concentrations of FCS (primary rat HSC/MF; FCS 0,25%, data not shown) | cell migration stimulated by FCS (primary rat HSC/MF; HSC/MF, FCS-stimulated, inhibitor 10^−10-10^−6 M, 20 h) | PDGF-BB induced cell migration into the scratch area (primary rat HSC/MF; primary rat HSC/MF, PDGF-BB 10 ng/ml, inhibitor 10^-9-10^-6 M, 17-20 h, dose-dependent) | PDGF-BB induced cell migration at 10^−6 M (primary rat HSC/MF; primary rat HSC/MF, PDGF-BB 10 ng/ml, inhibitor 10^−6 M, 17-20 h) | serum-stimulated cell proliferation (HSC/MF; 10% FCS, inhibitor 10^−6-10^−8 M) | PDGF-BB stimulated cell proliferation (HSC/MF; all cell types, PDGF-BB 10 ng/ml, inhibitor 10^−8-10^−6 M, 24 h) | CTGF expression (CTGF) | transcripts levels of other ECM molecules [1] | reduction of total liver collagen [2]
1 | CNc1cccc(CCOc2ccc3c(C(CC(=O)O)c4ccc5nsnc5c4)c[nH]c3c2)n1 (centres unmarked) [EMD 409915, 3-Benzo[1,2,5]thiadiazol-5-yl-3-{6-[2-(6-methylamino-pyridin-2-yl)-ethoxy]-1H-indol-3-yl}-propionic acid] | strongly inhibited | Complete abrogation | did not show any significant inhibition | no effect | strongly inhibited | Complete abrogation | absence of effect | did not have any effect | downregulated | no change | 
2 | O=C(O)CC(NC(=O)C(COCc1ccccc1)NC(=O)CCCCNc1ccccn1)c1cc(Cl)cc(Cl)c1 (centres unmarked) [EMD 409849, 3-{3-Benzyloxy-2-[5-(pyridin-2-ylamino)-pentanoylamino]-propanoylamino}-3-(3,5-dichloro-phenyl)-propionic acid] |  |  |  |  |  |  |  |  |  |  | 50-70%
